# Patent publication US20060293351A1, “Promotion of wound healing” (priority 1999, published 2006)
# Experiments:
# skin wound = test: Wound strength (bursting point, Instron tensiometer); type: in vivo, rats; conditions: irradiated or not; one or six injections
# Method: Wound strength was assessed by preparing rats substantially as described above, except that one group of rats (not irradiated) only received one injection of Halofuginone after wounding. The strength of wounds was measured as follows. First, a square of skin which was approximately 20 mm long and 16 mm wide, and which included the main part of the wound, was excised from sacrificed rats. Next, the skin was cut, perpendicular to the wound, to yield 7 strips of skin, each of which was 2 mm wide. The skin strips were secured between paper reinforcement frames and loaded on an Instron tensiometer for stretching at a constant rate of 25 mm/min. The bursting point was then recorded.
# collagen = test: Collagen content at the stricture site (Sirius red staining); type: in vivo, rats
# Method: The experiments were performed as follows. First, urethral catherization was performed on tile rats with a 23 G Quik-Cath (Baxter, Ireland) sheath. A spinal needle was inserted into the sheath, and was used to apply a coagulation current at a level of 10 W to the outer end of the needle for 1 second at three locations, 8, 10 and 12 mm from the meatus, in order to produce urethral strictures. Halofuginone was given for 7 days starting at the day of stricture formation, either orally at concentrations of 1 ppm and 5 ppm in the diet, or by injection of 0.03% Halofuginone dissolved in 2% lignocaine directly into the urethra once a day. After 21 days, the rats were sacrificed and the sutures were reopened to determine the level of urethral stricture formation, at which time biopsies of the tissue were taken. The tissue was sectioned so that histological studies could be performed. Briefly, the tissue samples were collected into phosphate-buffered saline (PBS) and fixed overnight in 4% paraformaldehyde in PBS at 4° C. Serial 5 μm sections were prepared after the samples had been dehydrated in graded ethanol solutions, cleared in chloroform and embedded in Paraplast. Differential staining of collagenous and non-collagenous proteins was performed with 0.1% Sirius red and 0.1% fast green as a counter-stain in picric acid. […]
# collagen α1(I) gene = test: Collagen α1(I) gene expression at the stricture site (in situ hybridization, image analysis); type: in vivo, rats; conditions: after coagulation treatment, 3 biopsies for each type of treatment
# Method: The experiments were performed as follows. First, urethral catherization was performed on tile rats with a 23 G Quik-Cath (Baxter, Ireland) sheath. A spinal needle was inserted into the sheath, and was used to apply a coagulation current at a level of 10 W to the outer end of the needle for 1 second at three locations, 8, 10 and 12 mm from the meatus, in order to produce urethral strictures. Halofuginone was given for 7 days starting at the day of stricture formation, either orally at concentrations of 1 ppm and 5 ppm in the diet, or by injection of 0.03% Halofuginone dissolved in 2% lignocaine directly into the urethra once a day. After 21 days, the rats were sacrificed and the sutures were reopened to determine the level of urethral stricture formation, at which time biopsies of the tissue were taken. For hybridization with the genetic probe, the sections were deparafinized in xylene, rehydrated through a graded series of ethanol solutions, rinsed in distilled water for 5 minutes and then incubated in 2×SSC at 70° C. for 30 minutes. The sections were then rinsed in distilled water and treated with pronase, 0.125 mg/ml in 50 mM Tris-HCl, 5 mM EDTA, pH 7.5, for 10 minutes. Alter digestion, the slides were rinsed with distilled water, post-fixed in 10% formalin in PBS and blocked in 0.2% glycine. […] Alkaline phosphatase activity was detected in the sections as previously described [Knopov. […]
# [1] = system: incision at tumor implantation site; test: Wound healing in nude mice implanted with C6 rat glioma tumors; type: in vivo, CD1-nude mice
# Method: Tumors from C6 rat glioma cells were prepared and implanted in nude mice. Certain mice received Halofuginone, either orally or through i.p. (intra-peritoneal) administration. […] The experimental method was as follows. C6 rat glioma cells were cultured in DMEM supplemented with 5% FCS, 50 units/ml penicillin, 50 micrograms/ml streptomycin and 125 […]. Aggregation of cells into small spheroids of about 150 microns was initiated by replating cells from confluent cultures onto agar-coated bacteriological plates. After 4-5 days in culture, the suspension was transferred to a 250 ml spinner flask (Bellco, USA), and the medium was changed every other da for 30-40 days. All culture operations were performed at 37° C. and 5% CO2. Other conditions were as previously reported (Abramovitch et al., Br. J. Cancer, 77:440-447, 1998; Abramovitch et al., Cancer Res., 55:1956-62, 1995). For the implantation of the cells, male CD1-nude mice, two months old and 30 g body weight, were anesthetized. A single tumor, about 1 mm in diameter, was implanted in each mouse stubcutaneously in the lower back at the site of a 4 mm incision, using a Teflon tubing, as reposed previously (Abramovitch et al., Br. J. Cancer, 77:440-447, 1998). The incision was formed with fine surgical scissors and closed with an adhesive bandage. The mice were then divided into six groups. One group received Halofuginone by oral administration as previously described. Four groups received different concentrations of Halofuginone through i.p. injections every other day (0.1, 0.5, 2 and 4 micrograms of Halofuginone per injection). One group received sham injections (no Halofuginone). MRI microimaging of the implanted tumor was performed on a horizontal 4.7 T Bruker-Biospec spectrometer using an actively RF decoupled surface coil, 2 cm in diameter, and a bird-cage transmission coil, as reported previously (Abramovitch et al., Br. J. Cancer, 77:440-447, 1998; and Abramovitch et al., Magn. Reson. Med., 39:813-824, 1998). Mice were anesthetized and placed supine with the tumor located at the center of the surface coil. Gradient echo images were acquired with a slice thickness of 0.5 mm, TE of 10 ms, TR of 230 ms and 256×256 pixels matrix resulting in in-plane resolution of 110 microns. Growth of the capillary bed was reflected by reduction of the mean intensity at a region of interest of 1 mm surrounding the tumor (Abramovitch et al., Br. J. Cancer, 77:440-447, 1998; and Abramovitch et al., Magn. Reson. Med., 39:813-824, 1998). At the end of the experimental period, the mice were sacrificed, and sections were obtained and prepared as previously described above. […] Such a result is surprising since wounds located less than 1 mm from a tumor implantation site have been previously shown not to heal rapidly.
# [2] = orally or 4 micrograms per i.p. injection
# [3] = particularly at the highest dose (4 micrograms per i.p. injection)
smiles,measurement,setting,value
O=C(CC1NCCC[C@H]1O)Cn1cnc2cc(Br)c(Cl)cc2c1=O (some centres unmarked) [Halofuginone],wound strength,skin wound,did not reduce wound strength
same,amount of collagen in the biopsies,collagen; given locally (FIG. 7D),decreased the amount of collagen
same,amount of collagen in the biopsies,collagen; given orally (FIG. 7C),decreased the amount of collagen
same,reduction in the expression of the collagen α1(I) gene,collagen α1(I) gene,5.3 fold
same,complete re-epitheliazation (mice per group),[1]; 4 micrograms per i.p. injection every other day,4 out of 5
same,complete re-epitheliazation (mice per group),[1]; administered orally,4 out of 5
same,re-epitheliazation (mice per group),"[1]; all other groups (0.1, 0.5, 2 micrograms per i.p. injection; sham)",1 out of 5
same,scarring at the site of the wound,[1]; [2],no scarring
same,wound healing despite presence of tumor,[1]; [2],significantly improved wound healing
same,collagen content,[1]; [3],decreased
same,expression of the collagen α1(I) gene,[1]; [3],decreased
